ChEMBL document CHEMBL1150574, “3-Acetoxyspathulenol, a new aromadendrane-type natural product from the soft Coral Parerythropodium fulvum” (J Nat Prod, 2001)
Active and inactive are the calls of the source.

Assays:
[1] = tested on: Aspergillus pseudoglaucus; experiment: Antimicrobial activity against Eurotium repens; format: functional, organism-based
[Chlorella] fusca = Antimicrobial activity against Chlorella fusca; format: functional, organism-based; settings: Scenedesmus fuscus
Priestia megaterium = experiment: Antimicrobial activity against Bacillus megaterium; format: functional, organism-based
Escherichia coli = experiment: Antimicrobial activity against Escherichia coli; format: functional, organism-based
Artemia = experiment: Toxicity against brine shrimp; format: organism-based; settings: in vivo
Fusarium oxysporum = experiment: Antimicrobial activity against Fusarium oxysporum; format: functional, organism-based
Mycotypha microspora = experiment: Antimicrobial activity against Mycotypha microspora; format: functional, organism-based
[2] = tested on: Human immunodeficiency virus; experiment: Inhibition of HIV reverse transcriptase
Microbotryum violaceum = experiment: Antimicrobial activity against Microbotryum violaceum; format: functional, organism-based
Caenorhabditis elegans = experiment: Nematicide against Caenorhabditis elegans; format: functional, organism-based
[3] = molecular target: Tyrosine-protein kinase Lck (Homo sapiens) (UniProt P06239); experiment: Inhibition of p56 LCK

Measured: Activity

Sequence of Tyrosine-protein kinase Lck (Homo sapiens) (P06239 2-509 limits assumed): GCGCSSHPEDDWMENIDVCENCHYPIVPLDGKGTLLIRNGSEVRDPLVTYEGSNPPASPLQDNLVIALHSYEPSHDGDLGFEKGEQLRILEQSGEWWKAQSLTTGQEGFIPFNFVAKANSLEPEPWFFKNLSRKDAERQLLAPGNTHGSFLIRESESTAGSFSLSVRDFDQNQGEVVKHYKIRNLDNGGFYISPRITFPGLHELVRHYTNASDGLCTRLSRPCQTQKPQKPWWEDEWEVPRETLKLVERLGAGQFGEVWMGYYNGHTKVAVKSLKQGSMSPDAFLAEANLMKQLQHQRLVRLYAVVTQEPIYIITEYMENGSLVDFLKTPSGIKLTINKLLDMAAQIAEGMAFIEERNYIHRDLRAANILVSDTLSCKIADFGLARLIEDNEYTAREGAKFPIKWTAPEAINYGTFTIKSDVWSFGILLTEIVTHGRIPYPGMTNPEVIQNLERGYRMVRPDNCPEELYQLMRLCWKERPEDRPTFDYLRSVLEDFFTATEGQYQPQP

C=C1CC[C@@H]2[C@H]([C@H]3[C@H]1C[C@@H](OC(C)=O)[C@@]3(C)O)C2(C)C
Non-toxic: Artemia
inactive: all other assays above
